Data as given in patent US12404249B2, “Heterocyclic derivatives and use thereof” (C&C RESEARCH LABORATORIES, priority 2018, dated 2025).

What was measured:
[1] = molecular target: T1, STAT3 (Homo sapiens, UniProt P40763); assay: STAT3 activation inhibition assay (reporter gene assay, LNcaP stable cell line, IL-6 stimulated); type: cell-based; settings: LNcaP stable cell line [plasmid STAT3-TA-luc], IL-6 10 ng/mL, 48 hours, luciferase activity; read-out: IC50 (μM) pSTAT3
T1 construct: endogenous in cells; host or cells: LNCaP (human prostate cancer) stably carrying pSTAT3-TA-luc reporter plasmid
Protocol: Cancer cell lines used for evaluating the compounds of the Examples were purchased from ATCC (American Type Culture Collection) or KCLB (Korean Cell Line Bank), and cultured according to the vendor's recommendation. The human prostate cancer cell line stably expressing the STAT3 promoter (LNcaP stable cell line [plasmid STAT3-TA-luc])—which was prepared to evaluate the inhibitory effect of the compounds of the Examples against dimerization of STAT3—was cultured in RPMI1640 (Cat no. 11875, Gibco), 10% fetal bovine serum (Cat no. SH30071.03, Hyclone) and 150 μg/mL G418 solution (Cat no. 04 727 894 001, Roche).
The reporter gene assay of LNcap stable cell line was carried out by the use of RPMI 1640 medium containing 3% DCC-FBS (without G-418). The cell line was dispensed into two (2) white 96-well plates at 30,000 cells/well/50 μL. The cell line was incubated for 24 hours under the condition of 37° C. and 5% CO2, and then the Example compounds of 50 mM DMSO stock were diluted to various concentrations and treated to two (2) white 96-well plates containing cells. Then, IL-6 was treated to a final concentration of 10 ng/mL. After the treatment of Example compounds and IL-6, the cells were cultured for 48 hours under the condition of 37° C. and 5% CO2. After 48 hours, the 96-well plates were observed under a microscope to record the presence or absence of drug precipitation and specificities, and the 96-well plates were kept at room temperature for 30 minutes. Then, in the case of the first 96-well plate, the culture medium on the plate was removed to measure the luciferase activity, and treated with passive lysis buffer at 20 µL/well and shaken for 30 minutes. The luciferase activity was measured on microLUMA LB96P (BERTHOLD) or Centro XS LB 960 (BERTHOLD) instrument using Luciferase assay system (Cat No. E1501, Promega Corporation). In the case of the second 96-well plate, 20 μL of Glo-mix solution was added to measure cytotoxicity by the compounds of the Examples, and the plate was well shaken for 10 minutes and analyzed on microLUMA LB96P (BERTHOLD) instrument using Glo-vial protocol. As a negative control, a 96 well-plate in which culture medium was added but cells were not plated was used. As a positive control, a 96 well-plate in which cells were plated and 0.1% DMSO and culture medium containing stimulation were added was used.
The results of evaluating the inhibitory effects of the compounds of the Examples against dimerization of STAT3 and STAT1 via STAT3 and STAT1 reporter gene assay are represented in Table 1.

[2] = test system: prostate cancer cell line (LNCap); assay: Cell growth inhibition assay (Celltiter Glo); type: cell-based; settings: Homo sapiens, LNCap cells, 120 hours incubation
Protocol: Cancer cell inhibitory effects by the compounds of the Examples were evaluated as follows. The prostate cancer cell line (LNCap) used was cultured under the condition according to the vendor's recommendation. LNCap was dispensed into a 96-well plate at 10,000 cells/well. After incubation under the condition of 37° C. and 5% CO2 for 24 hours, the Example compounds of 50 mM DMSO stock were diluted to various concentrations and treated to the 96-well plate containing cells. After treatment of the Example compounds, LNCap cells were incubated in an incubator (37° C., 5% CO2) for 120 hours. After each incubation time, the 96-well plate was observed under a microscope to record the presence or absence of drug precipitation and specificities, and the 96-well plate was kept at room temperature for 30 minutes. Then, after addition of 20 μL of Celltiter Glo solution, the 96-well plate was well shaken for 30 minutes. The growth inhibitory activity was measured on microLUMA LB96P (BERTHOLD) instrument using Glo-vial protocol. As a negative control, a 96 well-plate in which culture medium was added but cells were not plated was used. As a positive control, a 96 well-plate in which cells were plated and 0.1% DMSO instead of drugs was added was used. The results of growth inhibitory effects of the Example compounds on prostate cancer cell line are represented in Table 2.

T1 sequence (P40763 whole entry): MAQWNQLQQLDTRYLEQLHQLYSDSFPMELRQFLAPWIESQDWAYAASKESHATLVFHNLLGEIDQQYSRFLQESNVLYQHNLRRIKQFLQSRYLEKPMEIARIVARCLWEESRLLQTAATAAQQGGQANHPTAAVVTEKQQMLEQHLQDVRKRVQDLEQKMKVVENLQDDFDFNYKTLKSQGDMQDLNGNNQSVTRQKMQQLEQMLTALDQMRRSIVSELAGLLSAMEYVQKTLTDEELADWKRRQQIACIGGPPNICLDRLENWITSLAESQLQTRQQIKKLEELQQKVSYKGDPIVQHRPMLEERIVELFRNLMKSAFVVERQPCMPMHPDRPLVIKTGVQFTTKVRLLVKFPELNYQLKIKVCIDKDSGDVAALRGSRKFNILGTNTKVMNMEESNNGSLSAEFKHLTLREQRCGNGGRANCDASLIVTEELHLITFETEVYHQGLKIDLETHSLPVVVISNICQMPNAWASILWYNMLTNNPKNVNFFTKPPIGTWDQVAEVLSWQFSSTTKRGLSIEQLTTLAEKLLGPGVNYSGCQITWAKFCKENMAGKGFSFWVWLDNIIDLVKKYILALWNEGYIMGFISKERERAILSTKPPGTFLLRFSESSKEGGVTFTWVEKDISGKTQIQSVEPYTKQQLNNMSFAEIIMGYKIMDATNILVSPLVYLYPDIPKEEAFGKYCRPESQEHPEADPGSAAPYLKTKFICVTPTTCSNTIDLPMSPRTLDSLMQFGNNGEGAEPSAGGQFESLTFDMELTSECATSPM

Row | SMILES | IC50 [1] [µM] | IC50 [2] [µM]
1 | CS(=O)(=O)Nc1ccc(CCNc2cc(Cl)nc3cccc(OC(F)(F)F)c23)cc1 [Example 26, N-(4-(2-((2-chloro-5-(trifluoromethoxy)quinolin-4-yl)amino)ethyl)phenyl)methanesulfonamide] | 0.15 | 0.23
2 | O=[N+]([O-])c1ccc(CCNc2cc(Cl)nc3cccc(OC(F)(F)F)c23)cc1 [Example 13, 2-chloro-N-(4-nitrophenethyl)-5-(trifluoromethoxy)quinolin-4-amine] | 3.1 | 2.5
3 | CS(=O)(=O)Nc1ccc(CNC(=O)c2cc(Cl)nc3ccccc23)cc1 [Example 58, 2-chloro-N-(4-(methylsulfonamido)benzyl)quinolin-4-carboxamide] | > 50 | > 50
4 | O=C(O)c1ccc2nc(Cl)cc(NCCc3ccc([N+](=O)[O-])cc3)c2c1 [Example 40, 2-chloro-4-((4-nitrophenethyl)amino)quinolin-6-carboxylic acid] | > 50 | > 50
5 | CS(=O)(=O)Nc1ccc(CCNc2ncnc3ccccc23)cc1 [Example 38, N-(4-(2-(quinazolin-4-ylamino)ethyl)phenyl)methanesulfonamide] | 0.17 | 0.18
6 | CCOC(=O)c1ccc2nc(Cl)cc(NCCc3ccc([N+](=O)[O-])cc3)c2c1 [Example 16, ethyl 2-chloro-4-((4-nitrophenethyl)amino)quinolin-6-carboxylate] | > 50 | 21.8
7 | O=[N+]([O-])c1ccc(CCNc2nc(C(F)(F)F)nc3ccccc23)cc1 [Example 48, N-(4-nitrophenethyl)-2-(trifluoromethyl)quinazolin-4-amine] | 7.3 | 14.2
8 | O=[N+]([O-])c1ccc(CCNc2nc(Cl)nc3ccccc23)cc1 [Example 18, 2-chloro-N-(4-nitrophenethyl)quinazolin-4-amine] | 0.21 | 0.48
9 | O=C(Cc1ccc([N+](=O)[O-])cc1)Nc1ncnc2ccccc12 [Example 65, 2-(4-nitrophenyl)-N-(quinazolin-4-yl)acetamide] | > 50 | > 50
10 | O=S(=O)(Nc1ccc(CCNc2ncnc3ccccc23)cc1)C(F)(F)F [Example 60, 1,1,1-trifluoro-N-(4-(2-(quinazolin-4-ylamino)ethyl)phenyl)methanesulfonamide] | 14 | 29.5
11 | O=[N+]([O-])c1ccc(CCNc2cncc3ccccc23)cc1 [Example 62, N-(4-nitrophenethyl)isoquinolin-4-amine] | 12.1 | 23.5
12 | COc1ccc2nc(Cl)cc(NCCc3ccc(NS(C)(=O)=O)cc3)c2c1 [Example 11, N-(4-(2-((2-chloro-6-methoxyquinolin-4-yl)amino)ethyl)phenyl)methanesulfonamide] | 1.6 | 2.6
13 | CS(=O)(=O)Nc1ccc(CCNc2ccnc3cccc(OC(F)(F)F)c23)cc1 [Example 27, N-(4-(2-((5-(trifluoromethoxy)quinolin-4-yl)amino)ethyl)phenyl)methanesulfonamide] | 0.14 | 0.14
14 | O=[N+]([O-])c1ccc(CCNc2ccnc3ccccc23)cc1 [Example 17, N-(4-nitrophenethyl)quinolin-4-amine] | 1.6 | 4.7
15 | O=[N+]([O-])c1ccc(CCNc2cc(Cl)nc3c(F)cccc23)cc1 [Example 31, 2-chloro-8-fluoro-N-(4-nitrophenethyl)quinolin-4-amine] | 0.12 | 0.21
